Measurements reported in the NIST ThermoML archive (doi:10.1016/j.jct.2015.11.013).
Values joined by “and” are separate entries in the source; they are usually repeats but may differ in a detail not shown here. Equal values may be shown once.

Assay: cn = amount concentration of the nth substance listed, in mol/dm3
Conditions: 298.15 K, 101.3 kPa, Liquid, Taylor dispersion method

binary diffusion coefficient (c1 = 0.00075) [m2/s] | binary diffusion coefficient (c1 = 0.001) [m2/s] | binary diffusion coefficient (c1 = 0.0015) [m2/s] | binary diffusion coefficient (c1 = 0.002) [m2/s] | binary diffusion coefficient (c1 = 0.0025) | binary diffusion coefficient (c1 = 0.025) [m2/s] | binary diffusion coefficient (c1 = 0.05) [m2/s] | binary diffusion coefficient (c1 = 0.075) [m2/s] | binary diffusion coefficient (c1 = 0.085) [m2/s] | binary diffusion coefficient (c1 = 0.1) [m2/s] | Compound
1.19e-09 | 1.08e-09 | 9.5e-10 | 8.72e-10 | 8.49e-10 m2/s and 8.5e-10 m2/s | – | – | – | – | – | CCCCCCCC(=O)O [octanoic acid] + O
– | – | – | – | – | 8.56e-10 | 8.54e-10 | 8.52e-10 | 8.51e-10 | 8.5e-10 | CCCCCCCC(=O)[O-].[Na+] [sodium octanoate] + O
– | – | – | – | 3.53e-10 m2/s | – | – | – | – | – | OC[C@H]1O[C@@H]2O[C@H]3[C@H](O)[C@@H](O)[C@@H](O[C@H]4[C@H](O)[C@@H](O)[C@@H](O[C@H]5[C@H](O)[C@@H](O)[C@@H](O[C@H]6[C@H](O)[C@@H](O)[C@@H](O[C@H]7[C@H](O)[C@@H](O)[C@@H](O[C@H]1[C@H](O)[C@H]2O)O[C@@H]7CO)O[C@@H]6CO)O[C@@H]5CO)O[C@@H]4CO)O[C@@H]3CO [α-cyclodextrin] + O
